In ChEMBL document CHEMBL5034035, “Discovery of an Oxycyclohexyl Acid Lysophosphatidic Acid Receptor 1 (LPA1) Antagonist BMS-986278 for the Treatment of Pulmonary Fibrotic Diseases” (J Med Chem, 2021):
Values after ≈ are worked out from the molar mass of the structure shown.

Legend:
[1] = Plasma clearance in CD-1 mouse at 3 mg/kg, po or 1 mg/kg, iv measured up to 24 hrs by LC-MS/MS analysis; assay type: ADME, organism-based
[2] = Volume of distribution at steady state in CD-1 mouse at 3 mg/kg, po or 1 mg/kg, iv measured up to 24 hrs by LC-MS/MS analysis; assay type: ADME, organism-based; conditions: in vivo, read-out: Vdss
[3] = Oral bioavailability in CD-1 mouse at 3 mg/kg measured up to 24 hrs by LC-MS/MS analysis; assay type: ADME, organism-based; conditions: in vivo
[4] = molecular target: T1, Solute carrier organic anion transporter family member 1B1 (Homo sapiens, UniProt Q9Y6L6); experiment: Inhibition of OATP1B1 (unknown origin); assay type: ADME
T1 sequence (Q9Y6L6 whole entry): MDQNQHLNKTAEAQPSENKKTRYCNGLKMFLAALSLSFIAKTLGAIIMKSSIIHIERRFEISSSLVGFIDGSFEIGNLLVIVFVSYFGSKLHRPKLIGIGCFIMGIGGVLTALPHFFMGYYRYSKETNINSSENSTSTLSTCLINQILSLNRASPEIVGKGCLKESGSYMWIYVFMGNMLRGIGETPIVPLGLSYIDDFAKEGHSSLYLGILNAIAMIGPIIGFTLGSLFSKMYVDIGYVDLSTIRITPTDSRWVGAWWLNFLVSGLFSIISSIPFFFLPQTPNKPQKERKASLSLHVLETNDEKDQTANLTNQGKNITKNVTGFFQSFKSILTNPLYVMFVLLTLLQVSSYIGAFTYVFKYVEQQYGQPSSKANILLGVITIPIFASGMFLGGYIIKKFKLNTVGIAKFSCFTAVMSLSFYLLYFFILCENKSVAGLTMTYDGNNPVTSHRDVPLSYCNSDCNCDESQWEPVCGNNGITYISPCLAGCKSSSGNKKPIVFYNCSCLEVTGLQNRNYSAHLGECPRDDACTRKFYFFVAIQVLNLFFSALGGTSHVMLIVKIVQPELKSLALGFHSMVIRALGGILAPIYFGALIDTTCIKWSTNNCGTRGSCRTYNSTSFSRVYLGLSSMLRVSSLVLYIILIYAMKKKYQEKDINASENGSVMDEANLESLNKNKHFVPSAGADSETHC

Cytochrome P450 2B6 = molecular target: T2, Cytochrome P450 2B6 (Homo sapiens, UniProt P20813); experiment: Inhibition of CYP2B6 (unknown origin); assay type: ADME
T2 sequence (P20813 whole entry): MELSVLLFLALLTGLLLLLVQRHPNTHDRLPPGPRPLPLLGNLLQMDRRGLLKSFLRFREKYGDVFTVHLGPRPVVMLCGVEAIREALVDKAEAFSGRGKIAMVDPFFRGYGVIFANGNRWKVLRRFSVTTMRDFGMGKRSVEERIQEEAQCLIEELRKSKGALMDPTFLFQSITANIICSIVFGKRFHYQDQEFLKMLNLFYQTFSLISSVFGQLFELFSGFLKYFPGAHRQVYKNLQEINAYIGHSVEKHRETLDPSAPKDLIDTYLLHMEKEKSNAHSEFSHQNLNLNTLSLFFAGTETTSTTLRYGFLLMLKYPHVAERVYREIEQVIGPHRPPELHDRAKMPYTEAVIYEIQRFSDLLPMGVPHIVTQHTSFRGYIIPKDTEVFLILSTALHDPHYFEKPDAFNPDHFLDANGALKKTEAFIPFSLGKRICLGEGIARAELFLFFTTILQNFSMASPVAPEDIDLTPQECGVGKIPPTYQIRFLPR

CYP2B6 = CYP2B6 (Homo sapiens, UniProt P20813); experiment: Induction of CYP2B6 in human hepatocytes; assay type: ADME, cell-based, Hepatocyte
[5] = Drug metabolism in human hepatocytes assessed as carbamate hydrolytic product formation at 10 uM measured after 2 hrs by LC/UV/MS analysis; assay type: ADME, cell-based, Hepatocyte
[6] = Aqueous solubility of compound at pH 7.4; assay type: physicochemical
[7] = Half life in mouse liver microsomes at 10 uM measured after 120 mins; assay type: ADME, Microsome
Cytochrome P450 2C9 = Cytochrome P450 2C9 (Homo sapiens, UniProt P11712); experiment: Inhibition of CYP2C9 (unknown origin); assay type: ADME
Cytochrome P450 2C9, sequence (P11712 whole entry): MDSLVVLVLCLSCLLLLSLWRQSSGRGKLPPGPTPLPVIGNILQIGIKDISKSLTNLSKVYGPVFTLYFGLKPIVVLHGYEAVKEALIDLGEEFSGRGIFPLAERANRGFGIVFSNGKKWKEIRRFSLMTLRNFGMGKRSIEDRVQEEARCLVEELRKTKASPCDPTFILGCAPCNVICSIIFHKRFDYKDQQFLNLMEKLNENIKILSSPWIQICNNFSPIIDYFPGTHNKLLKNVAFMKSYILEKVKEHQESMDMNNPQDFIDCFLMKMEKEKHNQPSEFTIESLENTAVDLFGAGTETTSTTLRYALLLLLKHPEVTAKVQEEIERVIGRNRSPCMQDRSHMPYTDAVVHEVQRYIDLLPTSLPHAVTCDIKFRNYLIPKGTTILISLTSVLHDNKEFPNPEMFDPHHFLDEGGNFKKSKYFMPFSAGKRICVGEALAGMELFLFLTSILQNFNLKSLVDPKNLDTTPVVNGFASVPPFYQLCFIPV

Bile salt export pump = Bile salt export pump (Homo sapiens, UniProt O95342); experiment: Inhibition of BSEP (unknown origin); assay type: ADME
Bile salt export pump, sequence (O95342 whole entry): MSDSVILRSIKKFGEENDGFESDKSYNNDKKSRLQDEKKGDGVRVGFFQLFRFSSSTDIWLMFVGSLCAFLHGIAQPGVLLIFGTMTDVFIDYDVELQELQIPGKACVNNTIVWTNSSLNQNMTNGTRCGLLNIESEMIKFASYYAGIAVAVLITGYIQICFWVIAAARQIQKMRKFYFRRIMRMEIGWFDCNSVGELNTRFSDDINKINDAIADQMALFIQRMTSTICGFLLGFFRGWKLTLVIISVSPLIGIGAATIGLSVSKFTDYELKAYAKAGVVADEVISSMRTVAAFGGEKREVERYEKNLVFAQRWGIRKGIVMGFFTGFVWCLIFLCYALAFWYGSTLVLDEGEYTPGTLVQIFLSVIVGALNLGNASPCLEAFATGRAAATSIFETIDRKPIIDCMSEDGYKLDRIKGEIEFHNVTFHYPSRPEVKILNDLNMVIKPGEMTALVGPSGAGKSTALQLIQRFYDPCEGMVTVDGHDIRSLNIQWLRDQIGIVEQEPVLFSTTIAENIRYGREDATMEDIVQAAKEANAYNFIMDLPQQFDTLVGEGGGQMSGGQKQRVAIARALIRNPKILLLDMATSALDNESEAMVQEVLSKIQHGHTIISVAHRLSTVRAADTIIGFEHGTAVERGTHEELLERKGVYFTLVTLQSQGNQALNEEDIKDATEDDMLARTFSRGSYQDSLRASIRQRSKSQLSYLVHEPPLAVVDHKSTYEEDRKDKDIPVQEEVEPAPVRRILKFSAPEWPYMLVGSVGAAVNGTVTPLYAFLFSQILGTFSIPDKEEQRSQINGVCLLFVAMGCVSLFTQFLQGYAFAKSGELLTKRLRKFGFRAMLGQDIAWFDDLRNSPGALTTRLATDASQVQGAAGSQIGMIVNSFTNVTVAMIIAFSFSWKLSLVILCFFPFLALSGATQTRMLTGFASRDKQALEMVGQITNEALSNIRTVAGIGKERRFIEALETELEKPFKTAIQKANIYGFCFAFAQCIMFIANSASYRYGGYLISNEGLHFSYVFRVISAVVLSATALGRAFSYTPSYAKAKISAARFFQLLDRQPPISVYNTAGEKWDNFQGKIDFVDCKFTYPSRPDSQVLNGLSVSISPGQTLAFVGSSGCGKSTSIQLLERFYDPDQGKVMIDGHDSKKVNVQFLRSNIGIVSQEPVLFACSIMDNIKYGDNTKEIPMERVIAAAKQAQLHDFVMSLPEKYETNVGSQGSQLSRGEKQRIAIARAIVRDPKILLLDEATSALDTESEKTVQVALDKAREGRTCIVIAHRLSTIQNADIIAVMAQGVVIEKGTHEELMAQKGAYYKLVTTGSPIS

[8] = molecular target: ATP-binding cassette sub-family C member 3 (Homo sapiens, UniProt O15438); experiment: Inhibition of MRP3 (unknown origin)
ATP-binding cassette sub-family C member 3, sequence (O15438 whole entry): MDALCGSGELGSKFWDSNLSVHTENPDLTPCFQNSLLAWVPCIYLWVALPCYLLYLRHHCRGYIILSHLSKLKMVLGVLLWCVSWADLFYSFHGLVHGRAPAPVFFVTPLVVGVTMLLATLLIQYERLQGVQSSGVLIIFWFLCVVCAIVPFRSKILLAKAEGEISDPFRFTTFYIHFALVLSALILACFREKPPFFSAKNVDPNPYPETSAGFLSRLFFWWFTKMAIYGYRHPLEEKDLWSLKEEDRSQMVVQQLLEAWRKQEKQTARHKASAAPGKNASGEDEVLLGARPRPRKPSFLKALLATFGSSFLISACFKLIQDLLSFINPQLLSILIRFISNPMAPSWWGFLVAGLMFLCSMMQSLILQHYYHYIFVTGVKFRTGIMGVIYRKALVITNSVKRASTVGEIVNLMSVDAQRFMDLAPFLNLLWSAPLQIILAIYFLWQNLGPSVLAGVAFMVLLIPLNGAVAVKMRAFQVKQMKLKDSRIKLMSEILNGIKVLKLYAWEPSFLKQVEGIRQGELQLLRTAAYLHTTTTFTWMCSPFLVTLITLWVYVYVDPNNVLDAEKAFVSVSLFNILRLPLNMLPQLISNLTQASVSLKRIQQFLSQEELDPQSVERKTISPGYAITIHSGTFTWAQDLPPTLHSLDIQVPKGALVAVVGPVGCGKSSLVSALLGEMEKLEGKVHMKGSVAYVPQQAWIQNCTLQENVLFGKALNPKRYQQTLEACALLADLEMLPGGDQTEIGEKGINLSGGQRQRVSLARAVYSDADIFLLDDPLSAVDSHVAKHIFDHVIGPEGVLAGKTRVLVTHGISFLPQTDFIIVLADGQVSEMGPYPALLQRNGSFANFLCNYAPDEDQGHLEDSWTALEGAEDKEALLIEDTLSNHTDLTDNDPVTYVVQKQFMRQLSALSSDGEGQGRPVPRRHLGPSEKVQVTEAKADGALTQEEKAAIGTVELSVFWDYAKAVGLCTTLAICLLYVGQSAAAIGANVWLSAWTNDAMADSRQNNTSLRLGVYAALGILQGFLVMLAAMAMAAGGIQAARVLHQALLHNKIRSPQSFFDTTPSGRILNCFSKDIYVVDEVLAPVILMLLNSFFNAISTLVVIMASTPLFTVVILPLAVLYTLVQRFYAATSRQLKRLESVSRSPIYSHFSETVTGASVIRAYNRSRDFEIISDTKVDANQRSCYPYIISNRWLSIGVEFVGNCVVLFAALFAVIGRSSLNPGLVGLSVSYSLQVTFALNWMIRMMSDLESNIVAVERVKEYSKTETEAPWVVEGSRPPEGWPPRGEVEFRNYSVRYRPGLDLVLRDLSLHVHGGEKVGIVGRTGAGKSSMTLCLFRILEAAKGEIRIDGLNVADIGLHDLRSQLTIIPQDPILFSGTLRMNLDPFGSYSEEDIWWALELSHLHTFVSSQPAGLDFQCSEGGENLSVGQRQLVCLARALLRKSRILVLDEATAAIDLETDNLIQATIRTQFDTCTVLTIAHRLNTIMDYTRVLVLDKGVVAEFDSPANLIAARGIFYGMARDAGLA

[9] = Volume of distribution at steady state in Sprague-Dawley rat at 3 mg/kg, po or 1 mg/kg, iv measured up to 24 hrs by LC-MS/MS analysis; assay type: ADME, organism-based; conditions: in vivo, read-out: Vdss
[10] = molecular target: T3, Solute carrier organic anion transporter family member 1B3 (Homo sapiens, UniProt Q9NPD5); experiment: Inhibition of OATP1B3 (unknown origin); assay type: ADME
T3 sequence (Q9NPD5 whole entry): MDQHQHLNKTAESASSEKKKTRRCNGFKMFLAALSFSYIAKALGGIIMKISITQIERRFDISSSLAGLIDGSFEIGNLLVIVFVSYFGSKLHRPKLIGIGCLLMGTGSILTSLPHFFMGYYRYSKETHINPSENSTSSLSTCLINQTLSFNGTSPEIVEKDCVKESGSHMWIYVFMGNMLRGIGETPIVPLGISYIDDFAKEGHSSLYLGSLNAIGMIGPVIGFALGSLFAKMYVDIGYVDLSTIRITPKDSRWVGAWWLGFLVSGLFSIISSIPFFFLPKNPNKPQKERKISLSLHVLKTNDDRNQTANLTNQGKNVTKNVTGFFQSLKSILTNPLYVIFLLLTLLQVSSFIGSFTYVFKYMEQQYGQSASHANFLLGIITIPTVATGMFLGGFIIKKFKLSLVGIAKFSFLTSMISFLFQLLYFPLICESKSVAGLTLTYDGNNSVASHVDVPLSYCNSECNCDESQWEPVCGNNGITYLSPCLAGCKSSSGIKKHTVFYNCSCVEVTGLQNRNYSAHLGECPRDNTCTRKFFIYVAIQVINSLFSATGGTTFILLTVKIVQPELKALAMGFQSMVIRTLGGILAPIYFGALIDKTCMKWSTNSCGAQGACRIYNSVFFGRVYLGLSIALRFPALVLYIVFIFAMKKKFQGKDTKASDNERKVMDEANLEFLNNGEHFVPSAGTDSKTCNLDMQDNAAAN

[11] = Volume of distribution at steady state in cynomolgus monkey at 3 mg/kg, po or 1 mg/kg, iv measured up to 24 hrs by LC-MS/MS analysis; assay type: ADME, organism-based, Macaca fascicularis; conditions: in vivo, read-out: Vdss
[12] = Elimination half life in Sprague-Dawley rat at 3 mg/kg, po or 1 mg/kg, iv measured up to 24 hrs by LC-MS/MS analysis; assay type: ADME, organism-based; conditions: in vivo, read-out: beta t1/2 (converted)
Cytochrome P450 2C19 = Cytochrome P450 2C19 (Homo sapiens, UniProt P33261); experiment: Inhibition of CYP2C19 (unknown origin); assay type: ADME
Cytochrome P450 2C19, sequence (P33261 whole entry): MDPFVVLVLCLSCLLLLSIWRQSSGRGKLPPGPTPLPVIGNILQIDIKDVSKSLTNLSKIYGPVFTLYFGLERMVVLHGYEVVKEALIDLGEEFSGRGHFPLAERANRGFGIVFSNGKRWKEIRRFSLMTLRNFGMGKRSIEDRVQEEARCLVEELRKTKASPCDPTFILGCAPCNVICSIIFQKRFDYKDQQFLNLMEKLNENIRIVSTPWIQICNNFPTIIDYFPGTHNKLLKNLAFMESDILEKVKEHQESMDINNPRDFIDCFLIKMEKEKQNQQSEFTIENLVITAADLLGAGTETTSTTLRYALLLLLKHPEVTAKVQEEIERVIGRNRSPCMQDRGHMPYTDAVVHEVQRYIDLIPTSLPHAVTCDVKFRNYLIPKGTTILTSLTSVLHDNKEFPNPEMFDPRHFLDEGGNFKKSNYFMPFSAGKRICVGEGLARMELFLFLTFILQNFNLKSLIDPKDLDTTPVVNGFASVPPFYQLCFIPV

[13] = Half life in human liver microsomes at 10 uM measured after 120 mins; assay type: ADME, Microsome
[14] = molecular target: Lysophosphatidic acid receptor 1 (Mus musculus) (UniProt P61793); experiment: Antagonist activity at mouse LPA1 receptor expressed in CHO cells assessed as inhibition of LPA stimulated calcium flux incubated for 20 mins followed by LPA stimulation and measured for 90 seconds; assay type: functional, cell-based; conditions: filed as antagonist
Lysophosphatidic acid receptor 1 (Mus musculus), sequence (P61793 whole entry): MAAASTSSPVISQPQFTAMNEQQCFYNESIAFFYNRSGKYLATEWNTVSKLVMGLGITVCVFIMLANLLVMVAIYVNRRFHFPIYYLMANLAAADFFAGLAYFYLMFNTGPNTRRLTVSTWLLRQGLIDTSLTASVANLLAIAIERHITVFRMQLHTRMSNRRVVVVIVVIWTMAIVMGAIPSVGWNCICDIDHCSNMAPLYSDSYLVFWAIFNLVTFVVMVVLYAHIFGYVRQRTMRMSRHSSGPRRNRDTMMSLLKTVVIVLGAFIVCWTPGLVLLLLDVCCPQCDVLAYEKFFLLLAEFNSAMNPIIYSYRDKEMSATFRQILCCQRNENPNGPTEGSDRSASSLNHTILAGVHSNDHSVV

Q: What does the source list for `Cc1nc(-c2nnn(C)c2COC(=O)N(C)CC2CCC2)ccc1O[C@H]1CCC[C@H](C(=O)O)C1`?
A: clearance [1]: 118 mL/min/kg; Vd [2]: 14.6 L/kg; bioavailability [3]: 91%; IC50 [4]: 1500 nM; IC50 (Cytochrome P450 2B6): > 40 µM; IC50 (CYP2B6): > 50 µM; Drug metabolism [5]: Metabolite_Notdetected; solubility [6]: 705 µg/mL (≈ 1500 µM); half-life at 10 µM [7]: > 120 min; IC50 (Cytochrome P450 2C9): > 40 µM; IC50 (Bile salt export pump): 19.6 µM; IC50 [8]: 24 µM; Vd [9]: 9 L/kg; IC50 [10]: 2600 nM; Vd [11]: 6.3 L/kg; half-life [12]: 120 min; IC50 (Cytochrome P450 2C19): > 40 µM; half-life at 10 µM [13]: > 120 min

Q: With `Cc1noc(-c2ccc(-c3ccc(C4(C(=O)O)CC4)cc3)cc2)c1NC(=O)O[C@H](C)c1ccccc1` [BMS-986020] as the compound, how does the IC50 [4] read?
A: 170 nM

Q: What about the IC50 (Cytochrome P450 2B6) of the same compound?
A: > 50 µM

Q: What about the IC50 (CYP2B6) of the same compound?
A: > 50 µM

Q: And the solubility [6]?
A: 11 µg/mL (≈ 22.8 µM)

Q: What about the half-life at 10 µM [7] of the same compound?
A: 91 min

Q: What about the IC50 (Cytochrome P450 2C9) of the same compound?
A: 5.5 µM

Q: What about the IC50 (Bile salt export pump) of the same compound?
A: 4.8 µM

Q: And the IC50 [8]?
A: 22 µM

Q: And the IC50 [10]?
A: 570 nM

Q: And the IC50 (Cytochrome P450 2C19)?
A: > 50 µM

Q: And the Kb [14]?
A: 3.7 nM

Q: What about the half-life at 10 µM [13] of the same compound?
A: 83 min

Q: Which results are given for `CCCN(C)C(=O)OCc1c(-c2ccc(O[C@H]3CCC[C@H](C(=O)O)C3)c(C)n2)nnn1C` [ADMILPARANT]?
A: clearance [1]: 37 mL/min/kg; Vd [2]: 5.5 L/kg; bioavailability [3]: 70%; IC50 [4]: 36000 nM; IC50 (Cytochrome P450 2B6): > 40 µM; Drug metabolism [5]: Metabolite_Detected; half-life at 10 µM [7]: > 120 min; IC50 (Cytochrome P450 2C9): > 40 µM; IC50 (Bile salt export pump): > 100 µM; IC50 [8]: 66 µM; Vd [9]: 3.5 L/kg; IC50 [10]: 10000 nM; Vd [11]: 1.6 L/kg; half-life [12]: 270 min; IC50 (Cytochrome P450 2C19): > 40 µM; Kb [14]: 4 nM; half-life at 10 µM [13]: > 120 min
